Data on eight compounds can be found in PubChem BioAssay (NCI).

Each structure is given as a SMILES string.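 Step 1: Grow cells in 96-well plates. Step 2: Expose to compound for 48 hours at 5 concentrations. Step 3: Interpolate endpoints linearly; if unreached, use highest concentration. The concentration for full growth arrest is given as TGI.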 Some results are limits rather than exact numbers.

Some test systems named below: BT-549 breast; HL-60(TB) leukemia; CCRF-CEM leukemia; NCI-H460 lung; HCT-15 colon; OVCAR-4 ovarian; OVCAR-3 ovarian; A549 NSCLC; LOX IMVI melanoma; ACHN renal; K-562 leukemia; HOP-62 NSCLC; 786-0 renal; NCI-H226 lung; SF-268 CNS; NCI-H23 lung; A498 renal; RPMI-8226 leukemia; SNB-75 CNS.
Holding throughout (experiment): DTP human tumour cell line panel, 48 h

For the compound `CC(O)CNC(=O)Nc1c(C(F)(F)F)cc(-c2ccccc2)[nH]c1=O` (stereo not drawn), the TGI (in general, the concentration at which net growth stops) in the assay with BT-549 breast is > 100 µM; in the assay with HL-60(TB) leukemia it was 1.54 µM; in the assay with CCRF-CEM leukemia, > 100 µM; with NCI-H460 lung it was > 100 µM; in the assay with HCT-15 colon, > 100 µM; in the assay on OVCAR-4 ovarian, > 100 µM. Also, the TGI in the assay with OVCAR-3 ovarian, with A549 NSCLC, in the assay on LOX IMVI melanoma, with ACHN renal, in the assay with K-562 leukemia and in the assay on HOP-62 NSCLC was > 100 µM in each case. In addition, the TGI in the assay with 786-0 renal, in the assay with NCI-H226 lung, with SF-268 CNS, in the assay with NCI-H23 lung and in the assay with A498 renal was > 100 µM throughout.

On to `Cc1cc(O)c2c(c1)C(=O)c1c(c(O)cc(O)c1-c1c(O)cc(O)c3c1C(=O)c1cc(C)cc(O)c1C3=O)C2=O`, for which the TGI in the assay on HL-60(TB) leukemia worked out at 18.6 µM; in the assay on CCRF-CEM leukemia, 48.3 µM; in the assay on RPMI-8226 leukemia, 32.9 µM; in the assay on NCI-H460 lung, 55.3 µM; in the assay on HCT-15 colon, 38 µM; in the assay on SNB-75 CNS it was 66.1 µM. Moreover, the TGI with OVCAR-4 ovarian stood at 26.9 µM; in the assay on OVCAR-3 ovarian, 21.6 µM; with A549 NSCLC, 65.9 µM; in the assay on LOX IMVI melanoma it was 50.2 µM; in the assay on K-562 leukemia, 55.6 µM; with HOP-62 NSCLC, 32.3 µM. The TGI in the assay with NCI-H226 lung was 50 µM; in the assay on SF-268 CNS, 75.4 µM; in the assay on NCI-H23 lung, 50.8 µM; in the assay on A498 renal, 40.4 µM.

As for `COc1cc(S(=O)(=O)Nc2ccc(-c3csc(N4C(=O)C(C)SC4c4cccs4)n3)cc2)ccc1Cl` (stereo not drawn), the TGI with BT-549 breast is > 100 µM; in the assay with HL-60(TB) leukemia, 41.7 µM; in the assay with CCRF-CEM leukemia, 52.2 µM; in the assay with RPMI-8226 leukemia, > 100 µM; in the assay with HCT-15 colon it was > 100 µM; in the assay with OVCAR-3 ovarian, > 100 µM. The TGI was 96.7 µM in the assay on LOX IMVI melanoma; > 100 µM in the assay on ACHN renal; > 100 µM in the assay on K-562 leukemia; > 100 µM in the assay on HOP-62 NSCLC; > 100 µM in the assay on 786-0 renal; > 100 µM in the assay with NCI-H226 lung. Besides, the TGI in the assay on SF-268 CNS, with NCI-H23 lung and in the assay on A498 renal was > 100 µM each time.

Consider `COC(=O)C1(C(=O)OC)N=C(C)OC1c1ccccc1O` (stereo not drawn), for which the TGI in the assay on BT-549 breast, in the assay with HL-60(TB) leukemia, in the assay on CCRF-CEM leukemia, in the assay on RPMI-8226 leukemia, in the assay on NCI-H460 lung and in the assay on HCT-15 colon was > 100 µM throughout. The TGI with SNB-75 CNS, in the assay on OVCAR-4 ovarian, in the assay with OVCAR-3 ovarian, in the assay on A549 NSCLC, in the assay with LOX IMVI melanoma and in the assay on ACHN renal was > 100 µM throughout. For the same compound, the TGI with K-562 leukemia, in the assay with HOP-62 NSCLC, with 786-0 renal, in the assay with NCI-H226 lung, with NCI-H23 lung and with A498 renal was > 100 µM each time.

In the case of `CC(Br)CN1CCOCC1` (stereo not drawn), the TGI in the assay with BT-549 breast is > 100 µM; in the assay with HL-60(TB) leukemia it was 51.8 µM; with RPMI-8226 leukemia, > 100 µM; with NCI-H460 lung, > 100 µM; with HCT-15 colon it was > 100 µM; in the assay on OVCAR-3 ovarian, > 100 µM. The TGI in the assay with A549 NSCLC, with LOX IMVI melanoma, in the assay with ACHN renal, in the assay with K-562 leukemia, in the assay with HOP-62 NSCLC and in the assay on 786-0 renal was > 100 µM each time. For the same compound, the TGI in the assay with NCI-H226 lung, in the assay on SF-268 CNS, with NCI-H23 lung and in the assay with A498 renal was > 100 µM in each case.

As for `C=C1CC[C@@H]2C13[C@@H]1[C@H](CC(=O)[C@@]23C)C1(C)C` (stereo partly drawn), the TGI in the assay on BT-549 breast, in the assay on HL-60(TB) leukemia, in the assay with RPMI-8226 leukemia, in the assay on NCI-H460 lung, with HCT-15 colon and in the assay with OVCAR-4 ovarian was > 100 µM throughout. In addition, the TGI in the assay with OVCAR-3 ovarian, in the assay on A549 NSCLC, in the assay with LOX IMVI melanoma, in the assay with ACHN renal, in the assay on K-562 leukemia and in the assay with HOP-62 NSCLC was > 100 µM in each case. For the same compound, the TGI in the assay with 786-0 renal, with NCI-H226 lung, in the assay with SF-268 CNS, in the assay with NCI-H23 lung and in the assay with A498 renal was > 100 µM throughout.

In the case of `O=C(O)CCC(NC(=O)c1ccc(Nc2cnc3cc(C(F)(F)F)ccc3n2)cc1)C(=O)O` (stereo not drawn), the TGI with HL-60(TB) leukemia, in the assay on CCRF-CEM leukemia, with RPMI-8226 leukemia, with NCI-H460 lung, in the assay with HCT-15 colon and in the assay on SNB-75 CNS was > 100 µM throughout. For the same compound, the TGI with OVCAR-4 ovarian, in the assay with OVCAR-3 ovarian, with A549 NSCLC, with LOX IMVI melanoma, in the assay on K-562 leukemia and in the assay on HOP-62 NSCLC was > 100 µM each time. In addition, the TGI with NCI-H226 lung, in the assay on SF-268 CNS, in the assay on NCI-H23 lung and in the assay with A498 renal was > 100 µM in each case.

Take `C=CCCCCCCCCCP(=O)(c1ccccc1)c1ccc2c(c1)OCCOCCOCCOCCO2` (stereo not drawn): the TGI in the assay with HL-60(TB) leukemia was 19.7 µM; in the assay on CCRF-CEM leukemia, 40 µM; with RPMI-8226 leukemia, 31.8 µM; in the assay with NCI-H460 lung, 26.4 µM; with HCT-15 colon, 28.2 µM; in the assay with SNB-75 CNS, 33.1 µM. The TGI in the assay on OVCAR-4 ovarian was found to be 24.8 µM; in the assay with OVCAR-3 ovarian, 19.7 µM; in the assay with A549 NSCLC, 28.1 µM; in the assay with LOX IMVI melanoma it was 29 µM; in the assay on ACHN renal, 31.4 µM; in the assay on K-562 leukemia, 24.6 µM. The TGI was determined as 30.5 µM in the assay on HOP-62 NSCLC; 29.8 µM in the assay on 786-0 renal; 33.9 µM in the assay with NCI-H226 lung; 29.5 µM with SF-268 CNS; 29.7 µM with NCI-H23 lung; 27.7 µM in the assay with A498 renal.
